Results from patent US8470883B2, “Preservative system and composition based on glycinate and hydroxyethyl sulfonate salt combination” (Conopco, Inc., priority 2010, dated 2013).

Tested on: Pseudomonas aeruginosa ATCC 9027
Test: Challenge Test for the Evaluation of Preservative Capacity of Liquid Detergent and Personal Products
Format: cell-based
Conditions: aqueous formula, each active component 5%, pH 7.6
Experimental: Experiments were conducted to evaluate antimicrobial activity against Pseudomonas aeruginosa of aqueous formulas containing sodium hydroxyethyl sulfonate, sodium cocoyl glycinate and combinations of these two materials. Samples were prepared at room temperature by mixing together sodium cocoyl glycinate and/or sodium hydroxyethyl sulfonate and water. The pH was adjusted by addition of aqueous hydrochloric acid to reach a 7.6 value. Amounts of each of the active components was 5%. Challenge Test for the Evaluation of Preservative Capacity of Liquid Detergent and Personal Products Pseudomonas aeruginosa ATCC 9027 obtained from American Type Culture Collection, Manassas, Va. 20108. 20 grams of product were inoculated with 0.2 ml of the microorganism at a level of 1.06E+07 or Log 7. A single inoculation was performed. At 2 day, 7 day, 14 day and 21 day time points after inoculation a 1 gram sample was aseptically removed into a neutralizing fluid (TAT Broth) and plated using Letheen Agar. The plates were incubated at 30° C. for 7 days. At the end of the incubation time the plates were removed and examined for microbial growth. The microorganisms recovered were converted into Log10 and compared to initial inoculum count which then determined the Log Reduction. Logarithmic functions are the inverse of exponential functions. Log reduction was determined by the initial inoculum count minus the counts at each sampling time point.

[1] = 2 day after single inoculation (1.06E+07, Log 7)
[2] = 7 day after single inoculation (1.06E+07, Log 7)
[3] = 14 day after single inoculation (1.06E+07, Log 7)
[4] = 21 day after single inoculation (1.06E+07, Log 7)

## O=S(=O)([O-])CCO.[Na+] [Sodium Hydroxyethyl Sulfonate, sodium hydroxyethyl sulfonate]
[1]
  Log Reduction Value: 1.1
[2]
  Log Reduction Value: 0.9
[3]
  Log Reduction Value: 0.8
[4]
  Log Reduction Value: 0.5

## sodium cocoyl glycinate
[1]
  Log Reduction Value: 1.1
[2]
  Log Reduction Value: 1.1
[3]
  Log Reduction Value: 0.8
[4]
  Log Reduction Value: 0.2
